Consider three molecules from article PMC10149257, “Substrate recognition and proton coupling by a bacterial member of solute carrier family 17” (The Journal of Biological Chemistry, 2023).

Where a chain is given by its changes, count along the chain named.

By IC50 is commonly meant the concentration that gives 50% inhibition. Read a high IC50 as weaker potency. The Km is the concentration of substrate that gives half-maximal velocity.

In series [1] the target is T1, Sialin (Rattus norvegicus, UniProt Q5Q0U0, Y54F, form not given).
T1 construct: gene Slc17a5
T1 sequence (Q5Q0U0 1-495 Y54F): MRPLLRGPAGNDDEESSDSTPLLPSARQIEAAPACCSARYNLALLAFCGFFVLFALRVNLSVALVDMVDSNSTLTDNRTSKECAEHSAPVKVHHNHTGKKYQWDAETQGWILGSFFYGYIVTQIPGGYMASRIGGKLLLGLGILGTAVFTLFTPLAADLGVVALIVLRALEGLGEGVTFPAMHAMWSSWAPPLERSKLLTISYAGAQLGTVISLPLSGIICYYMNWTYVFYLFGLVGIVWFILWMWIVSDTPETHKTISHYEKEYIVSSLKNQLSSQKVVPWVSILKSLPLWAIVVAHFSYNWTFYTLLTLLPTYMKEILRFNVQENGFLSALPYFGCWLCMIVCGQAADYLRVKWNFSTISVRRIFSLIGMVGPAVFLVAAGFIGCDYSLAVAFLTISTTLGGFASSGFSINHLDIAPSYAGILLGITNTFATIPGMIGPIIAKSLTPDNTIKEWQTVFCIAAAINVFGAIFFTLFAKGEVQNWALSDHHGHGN
The series can be described thus: inhibition of 3H-glucuronic acid uptake by unlabelled compound in transfected HEK293T cells. The format is cell-based. Conditions: room temperature, 4 min, Ringer's solution; self-competition with labelled compound.

In series [2] the target is T2, Sialin (Rattus norvegicus, UniProt Q5Q0U0).
T2 construct: gene Slc17a5
T2 sequence (Q5Q0U0 1-495): T1 sequence (Q5Q0U0 1-495 Y54F) with F54Y
The description is as above. In kind it is cell-based. Conditions: room temperature, 4 min, Ringer's solution; self-competition with labelled compound.

Series [3] deals with T3, O=C(O)[C@H](O)[C@@H](O)[C@@H](O)[C@H](O)CO.
T3 construct: full length, C-terminal modified decahistidine tag, pBAD; expressed in dgoT-deleted E. coli (Keio dgoT727(del)::kan)
The series can be described thus: cells, lysate or membranes. The format is cell-based, Escherichia coli. The note with it: 150 mM KCl, pH 6, 30 °C, 30 s, H+ cotransport, labelled compound.

Substrate in series [4]: O=C(O)[C@H](O)[C@@H](O)[C@@H](O)[C@H](O)CO
The series can be described thus: cells, lysate or membranes. The format is cell-based, Escherichia coli. The note with it: 150 mM KCl, pH 6, 30 °C, 20 s, H+ cotransport, labelled compound.

Take `O=C(O)[C@H]1OC(O)[C@H](O)[C@@H](O)[C@@H]1O` (stereo partly shown) [glucuronic acid]: the IC50 on Sialin [1] was roughly 3000 µM; at Sialin [2], roughly 2000 µM. With DgoT (Escherichia coli; Y44F), the Michaelis constant (Km) in series [3] amounted to 22.8 ± 7.7 µM.

B1: DgoT (Escherichia coli) (protein)
chain: MVSGFAMPKIWRKLAMDIPVNAAKPGRRRYLTLVMIFITVVICYVDRANLAVASAHIQEEFGITKAEMGYVFSAFAWLYTLCQIPGGWFLDRVGSRVTYFIAIFGWSVATLFQGFATGLMSLIGLRAITGIFEAPAFPTNNRMVTSWFPEHERASAVGFYTSGQFVGLAFLTPLLIWIQEMLSWHWVFIVTGGIGIIWSLIWFKVYQPPRLTKGISKAELDYIRDGGGLVDGDAPVKKEARQPLTAKDWKLVFHRKLIGVYLGQFAVASTLWFFLTWFPNYLTQEKGITALKAGFMTTVPFLAAFVGVLLSGWVADLLVRKGFSLGFARKTPIICGLLISTCIMGANYTNDPMMIMCLMALAFFGNGFASITWSLVSSLAPMRLIGLTGGVFNFAGGLGGITVPLVVGYLAQGYGFAPALVYISAVALIGALSYILLVGDVKRVG
notes: full length, C-terminal modified decahistidine tag, pBAD; expressed in dgoT-deleted E. coli (Keio dgoT727(del)::kan)
With B1, the Km in series [4] was 1.97 ± 1.1 µM.
